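Briefly, cells in 96-well plates were exposed to five compound concentrations for 48 h, and endpoints were estimated by linear interpolation. GI50 is the concentration that inhibits growth by half.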 Activity calls are given as the source filed them. Cut-off read from the data, not from the text of the source: active = GI50 up to about 1.1 µM and inactive = higher.
Experiments:
Experiment in all cases: NCI-60 cell line screen, 48 h
COLO 205 = system: COLO 205
MDA-MB-435 = system: MDA-MB-435
NCI-H522 = system: NCI-H522
NCI-H23 = system: NCI-H23
OVCAR-5 = system: OVCAR-5
TK-10 = system: TK-10
Malme-3M = system: Malme-3M
HOP-92 = system: HOP-92
SF-539 = system: SF-539
SF-295 = system: SF-295
CAKI-1 = system: CAKI-1
LOX IMVI = system: LOX IMVI
UACC-257 = system: UACC-257
MOLT-4 = system: MOLT-4
SF-268 = system: SF-268
ACHN = system: ACHN
NCI-H226 = system: NCI-H226
U-251 = system: U-251
MDA-N = system: MDA-N
SR = system: SR

SMILES	GI50 (COLO 205)	GI50 (MDA-MB-435)	GI50 (NCI-H522)	GI50 (NCI-H23)	GI50 (OVCAR-5)	GI50 (TK-10)	GI50 (Malme-3M)	GI50 (HOP-92)	GI50 (SF-539)	GI50 (SF-295)	GI50 (CAKI-1)	GI50 (LOX IMVI)	GI50 (UACC-257)	GI50 (MOLT-4)	GI50 (SF-268)	GI50 (ACHN)	GI50 (NCI-H226)	GI50 (U-251)	GI50 (MDA-N)	GI50 (SR)
Clc1ccc(Cl)c(SCCCN2CCNCC2)c1	16.2 µM (inactive)	14 µM (inactive)	16.3 µM (inactive)	19.4 µM (inactive)	15.5 µM (inactive)	16.5 µM (inactive)	15.8 µM (inactive)	15 µM (inactive)	27.5 µM (inactive)	17.8 µM (inactive)	17.8 µM (inactive)	14.9 µM (inactive)	11.7 µM (inactive)	17.1 µM (inactive)	16.6 µM (inactive)	15.1 µM (inactive)	18.3 µM (inactive)	16.4 µM (inactive)		
O=C1c2ccccc2C(=O)c2c1ccc(C1C(=O)c3ccccc3C1=O)c2-c1c(C2C(=O)c3ccccc3C2=O)ccc2c1C(=O)c1ccccc1C2=O	> 100 µM (inactive)	> 100 µM (inactive)	> 100 µM (inactive)		> 100 µM (inactive)	> 100 µM (inactive)	> 100 µM (inactive)	> 100 µM (inactive)	> 100 µM (inactive)	> 100 µM (inactive)	> 100 µM (inactive)	74.3 µM (inactive)	> 100 µM (inactive)	19 µM (inactive)	> 100 µM (inactive)	> 100 µM (inactive)	> 100 µM (inactive)	> 100 µM (inactive)	> 100 µM (inactive)	
COC(=O)[C@]1(C)CCC[C@@]2(C)C1CC[C@]13C=C(C(C)C)[C@H](CC21)CC3(Cl)C#N (some centres undefined)	41.6 µM (inactive)	42.6 µM (inactive)	26.5 µM (inactive)	59.8 µM (inactive)	> 100 µM (inactive)	> 100 µM (inactive)	36.6 µM (inactive)	> 100 µM (inactive)	78 µM (inactive)	41.4 µM (inactive)	66.1 µM (inactive)		27.7 µM (inactive)	20 µM (inactive)	46.3 µM (inactive)	43.9 µM (inactive)	22.8 µM (inactive)	19.8 µM (inactive)		32.1 µM (inactive)
NCc1ccc(-c2ccc(CN)s2)s1	23 µM (inactive)	> 100 µM (inactive)	> 100 µM (inactive)	> 100 µM (inactive)	56.2 µM (inactive)	11.3 µM (inactive)	> 100 µM (inactive)	> 100 µM (inactive)	> 100 µM (inactive)	> 100 µM (inactive)	> 100 µM (inactive)	> 100 µM (inactive)	42.4 µM (inactive)	> 100 µM (inactive)		> 100 µM (inactive)	41.1 µM (inactive)	> 100 µM (inactive)	> 100 µM (inactive)	
COC1=C(OC)C(=O)C(Cc2c(Cl)nc3sccn23)=C(C)C1=O	15.7 µM (inactive)	8.91 µM (inactive)	6.15 µM (inactive)	5.36 µM (inactive)	16.9 µM (inactive)	12.9 µM (inactive)	1.85 µM (inactive)		12.5 µM (inactive)	12.4 µM (inactive)	14.3 µM (inactive)	2.96 µM (inactive)	3.32 µM (inactive)	1.85 µM (inactive)	14.5 µM (inactive)	12.4 µM (inactive)		12.6 µM (inactive)		5.04 µM (inactive)
C[C@H]1CC[C@@H]2[C@@H](C)C[C@H]3[C@@H]4C(C)(C)OC(=O)[C@]4(C)C(=O)[C@@]23C1=O	> 100 µM (inactive)	> 100 µM (inactive)	50.7 µM (inactive)	> 100 µM (inactive)	> 100 µM (inactive)	> 100 µM (inactive)	> 100 µM (inactive)	85.5 µM (inactive)	> 100 µM (inactive)	> 100 µM (inactive)	> 100 µM (inactive)	> 100 µM (inactive)	> 100 µM (inactive)	> 100 µM (inactive)	> 100 µM (inactive)	> 100 µM (inactive)	> 100 µM (inactive)		> 100 µM (inactive)	
Cc1ccc(-c2c(C#N)c(-c3ccc(Cl)cc3)c(C#N)c(=O)n2NS(=O)(=O)c2ccccc2)cc1	> 100 µM (inactive)	> 100 µM (inactive)	38.1 µM (inactive)		> 100 µM (inactive)	74.3 µM (inactive)	> 100 µM (inactive)	25.2 µM (inactive)	44.9 µM (inactive)	60.8 µM (inactive)	37.2 µM (inactive)	42.3 µM (inactive)	> 100 µM (inactive)	55.2 µM (inactive)	67 µM (inactive)	46.9 µM (inactive)	77.3 µM (inactive)	74.8 µM (inactive)	> 100 µM (inactive)	
C[C@@H]1OC(=O)C[C@H]2CC(=O)N(CCC3CN(C(=O)OCc4ccccc4)c4ccccc43)C[C@@H]21 (some centres undefined)	> 100 µM (inactive)	> 100 µM (inactive)	> 100 µM (inactive)	> 100 µM (inactive)	> 100 µM (inactive)	> 100 µM (inactive)	> 100 µM (inactive)	> 100 µM (inactive)		> 100 µM (inactive)	> 100 µM (inactive)		> 100 µM (inactive)	> 100 µM (inactive)	> 100 µM (inactive)	> 100 µM (inactive)		> 100 µM (inactive)	> 100 µM (inactive)	
C[C@H]1[C@H](N2CCCC2)O[Si](C(C)(C)C)(C(C)(C)C)[C@@H]1C	> 100 µM (inactive)	> 100 µM (inactive)	> 100 µM (inactive)	> 100 µM (inactive)	> 100 µM (inactive)	> 100 µM (inactive)	59.2 µM (inactive)	< 0.01 µM (active)	> 100 µM (inactive)	> 100 µM (inactive)	> 100 µM (inactive)	> 100 µM (inactive)	> 100 µM (inactive)	> 100 µM (inactive)		46.8 µM (inactive)	> 100 µM (inactive)	> 100 µM (inactive)	> 100 µM (inactive)	
C/C1=C\CC[C@@]2(C)O[C@@H]2[C@H]2OC(=O)C(C)C2C[C@H]1O (some centres undefined)	> 100 µM (inactive)	> 100 µM (inactive)	> 100 µM (inactive)	> 100 µM (inactive)	> 100 µM (inactive)	> 100 µM (inactive)	> 100 µM (inactive)	> 100 µM (inactive)		> 100 µM (inactive)	> 100 µM (inactive)	> 100 µM (inactive)	> 100 µM (inactive)	> 100 µM (inactive)	> 100 µM (inactive)	> 100 µM (inactive)		> 100 µM (inactive)		> 100 µM (inactive)
C=CN(C=C)C(=O)Cn1cc(-c2ccccc2)nn1	> 100 µM (inactive)	> 100 µM (inactive)	> 100 µM (inactive)	> 100 µM (inactive)	> 100 µM (inactive)	> 100 µM (inactive)	> 100 µM (inactive)	> 100 µM (inactive)	> 100 µM (inactive)	> 100 µM (inactive)	> 100 µM (inactive)	> 100 µM (inactive)	> 100 µM (inactive)	> 100 µM (inactive)	> 100 µM (inactive)	> 100 µM (inactive)		> 100 µM (inactive)		> 100 µM (inactive)

From ChEMBL document CHEMBL1201862, “PubChem BioAssay data set” (2004)
